Holding throughout (format): cell-based, human
The subject of assay [1] is H929 and MM1S cells. As to the kind of experiment: Proliferation of MM cells ([3H]TdR incorporation). As for the experimental part:
Cell proliferation was evaluated by [^3H]TdR incorporation as described in Mani et al., Cancer Res. 69: 7577-7586 (2009). When proliferation of MM cells was determined in the presence of HS5 or BMEC-60 cells, the latter were previously gamma-irradiated (10,000 rads) and dispensed into 96-well plates. Then, MM1S and H929 cells were co-cultured with either BMEC-60 cells, CM alone, CyPA, or CyPB for 72 hrs. Viability of MM1s-Luc cells were co-cultured with BMEC-60 cells and then treated with drugs as described was assessed, using the tumor cell-specific in vitro bioluminescence imaging (SS-BLI).

In assay [2] the test system is MM1S-luc cells. Briefly: Transwell migration assay of MM1S-luc cells. As for the experimental part:
For cell migration assays, the top chamber of transwell plates ([…], Corning Costar) was seeded with 2×10^5 MM1S-luc cells, and the bottom chamber was seeded with either medium (0.1% FBS) alone, BMEC-60 cells, BMEC-60 cell-conditioned medium, or plain medium containing CyPA and/or CD147. After 12 hrs of incubation, MM1S-luc cells that had migrated to the bottom chamber were collected and quantified by Xenogen Imaging. Migration of RPMI, U266, CLL, LPL, or primary tumor cells was evaluated by counting the number of unlabeled cells in the lower chamber. Each experiment was done in triplicate and repeated twice. Recombinant HPLC-purified eCyPA was purchased from BioMart Inc. and eCyPB (PPIB) human recombinant protein was purchased from Abnova. In most instances, 50 ng/ml of eCyPA or eCyPB diluted in serum-free RPMI medium was used. CM was collected from confluent cultures of BMEC-60 cells incubated for 48 hours. When needed, the CM was treated with 100 μ/ml proteinase K (19133, Qiagen) for 2 hrs and then deactivated for 15 min at 70° C. Anti-CD147 (UM-8D6) antibody and monoclonal mouse IgG1 (MOPC31C) were obtained from Ancell; anti-CXCR4 (MAB171) was from R&D systems. Migration data were normalized using the data obtained with medium alone. Results are means.±SD for triplicate assays.

In assay [3] the test system is H929 and MM1S cells. As to the kind of experiment: Immunoblot analysis of total protein extracts from MM cells. The protocol: Total protein samples were prepared from non-attached H929 and MM1S cells grown in CM from cultures of BMEC-60 or BMEC-1 cells attached for 72 hr. In some experiments, the cells were co-cultured with BMEC-60 cells using transwell chambers (Corning Costar, 0.45 µm pore diameter). Immunoblotting was performed as described in Takada et al., Sci. Transl. Med. 4, 148ra117 (2012). When MM1S and H929 cells were treated with eCyPA or CD147 Ab, they were first incubated with eCyPA or CD147 Ab for 5 hrs in serum-free medium. Then 0.5% serum was added, and incubation was resumed for another 72 hrs before performing protein preparation. Anti-human primary antibodies included: BCL9 (2D4, Abnova), CyPA (ERPR7511, Abcam), CD147 (#13287, Cell Signaling), pSTAT3 (#9131, Cell Signaling), pERK (#4370, Cell Signaling), PARP (#9542, Cell Signaling), pAKT (#9271, Cell Signaling), Active-β-catenin (05-665, Millipore), Factor VIII (A0082, DAKO), MMP-9 (MAB911, R&D), CyPB (MAB5410, R&D), and horseradish peroxidase (HRP)-conjugated actin (C-11, Santa Cruz). Actin Ab was used as a loading control. Secondary antibodies included: anti-rabbit IgG (HRP)-conjugated (W402b, Promega), and anti-mouse IgG (HRP)-conjugated (W401b, Promega). Protein concentrations were measured in triplicate by Bradford assay (BioRad). Optimal antibody concentrations were used according to the manufacturer's recomendations.
On the technique in general: Immunoblotting shows a protein as a band on a membrane.

Assay [4] deals with CLL and LPL cells. Briefly: Transwell migration assay of CLL and LPL cells. As to conditions: 50 ng/ml recombinant eCyPA. The source says: FIG. 16. (FIG. 16A) Representative immunostains (top, n=10) and flow cytometric (bottom, n=6) analysis of CD147 expression in BM samples from CLL patients. (FIG. 16B) Representative immunostains (top, n=10) and flow cytometric (bottom, n=6) analysis of CD147 expression in BM samples from LPL patients. (FIG. 16C) Flow cytometry of CD147 (red line) and control isotype (black line) expression in one CLL cell line (HG3) and one primary tumor patient cells (CLLPT #1). (FIG. 16D) Flow cytometry of CD147 (red line) and control isotype (black line) expression in one LPL cell line (BCWM.1) and one primary tumor patient cells (LPLPT #1). […] Migration of primary CLL and LPL tumor patient cells was evaluated in four different samples for each tumor type. […] Unlabeled cell lines and primary tumors were used, and migration was evaluated by counting cells in the bottom chamber. […]
For cell migration assays, the top chamber of transwell plates ([…], Corning Costar) was seeded with 2×10^5 MM1S-luc cells, and the bottom chamber was seeded with either medium (0.1% FBS) alone, BMEC-60 cells, BMEC-60 cell-conditioned medium, or plain medium containing CyPA and/or CD147. After 12 hrs of incubation, MM1S-luc cells that had migrated to the bottom chamber were collected and quantified by Xenogen Imaging. […]

The subject of assay [5] is H929, OPM2, RPMI and primary MM cells. As to the kind of experiment: Transwell migration assay of other MM cell lines and primary MM cells. As to conditions: 50 ng/ml recombinant protein. As for the experimental part: FIG. 12. (FIG. 12A) CyPA immunostains in two different NBM, kidney, liver, and lymph node biopsies from healthy subjects. (FIG. 12B) Serum levels of eCyPA in 10 BM aspirates from MGUS and MM patients. (FIG. 12C) Transwell migration assay of MM1S-luc cells incubated in the absence of serum (Medium) or BM serum from two different MM patients with low (PT #4) and high (PT #12) levels of eCyPA (same as FIG. 4I). Migration data was normalized based on data of medium alone. (FIG. 12D) Transwell migration assay of H929, OPM2 and RPMI cells incubated with medium alone or in the presence of 50 ng/ml of recombinant eCyPA. (FIG. 12E) Transwell migration assay of two MM primary tumors (MMPT #1 and MMPT #2) incubated with medium alone or 50 ng/ml of recombinant eCyPA or BMEC-60 cells.
For cell migration assays, the top chamber of transwell plates ([…], Corning Costar) was seeded with 2×10^5 MM1S-luc cells, and the bottom chamber was seeded with either medium (0.1% FBS) alone, BMEC-60 cells, BMEC-60 cell-conditioned medium, or plain medium containing CyPA and/or CD147. After 12 hrs of incubation, MM1S-luc cells that had migrated to the bottom chamber were collected and quantified by Xenogen Imaging. Migration of RPMI, U266, CLL, LPL, or primary tumor cells was evaluated by counting the number of unlabeled cells in the lower chamber. […]

Consider “CyPB: eCyPB (PPIB) human recombinant protein purchased from Abnova”, for which, in assay [1] (tested at much higher concentrations than those in BM serum of MM patients), the “proliferation of MM cells” value is listed as “induces proliferation”. Also, in assay [2] (50 ng/ml each), the “migration of MM1S-luc cells, CyPB compared with CyPA” value is given as “Major differences were likewise not observed”.

Consider “eCyPA: Recombinant HPLC-purified eCyPA (extracellular cyclophilin A) purchased from BioMart Inc.”, for which the “signaling pathways (Wnt/β-catenin, STAT3, AKT, ERK) in MM cells” value in assay [3] (50 ng/ml eCyPA vs without) is recorded as “activation of several signaling pathways”. In assay [3] (CyPA-treated), the “higher-glycosylated form of CD147 in MM cells” value is “increased”. For the same substance, in assay [3] (cells treated with eCyPA), the “expression of matrix metalloprotease 9 (MMP-9)” value is reported as “increased”. In addition, the “CD147 expression in MM cells” value in assay [3] (concentration-dependent and time-dependent) is on record as “dramatically increased”. In assay [4], the “migration of CLL cells” value is recorded as “enhanced migration” and the “migration of LPL cells” value was “enhanced migration”. In addition, the “proliferation of H929 and MM1S cells” value in assay [1] (concentration-dependent) was “enhanced”. In assay [5], the “migration of other MM cell lines (H929, OPM2, RPMI)” value is “induced migration” and the “migration of primary MM cells” value was “induced migration”. Further, in assay [2] (MM1S-luc cells), the “concentration giving maximal migration response” value turned out to be 50 ng/mL and the “lowest concentration inducing significant migration” value was 6 ng/mL. Besides, the “migration of MM cells incubated with BMEC-1 transduced with CyPA-shRNAs” value in assay [2] (addition of 50 ng/ml recombinant eCyPA) is “restored migration”. Besides, the “migration of MM1S-luc cells” value in assay [2] (purified recombinant protein, time- and concentration-dependent) is “promoted migration”.

(Values after patent US11391739B2, “Compositions and methods for treating multiple myeloma” (DANA-FARBER CANCER INSTITUTE, INC., priority 2014, dated 2022).)
